Experimental findings from article PMC8534150, “New Insights to Regulation of Fructose-1,6-bisphosphatase during Anoxia in Red-Eared Slider, Trachemys scripta elegans” (Biomolecules, 2021) are described below.

Holding throughout (test): coupled phosphoglucoisomerase / glucose-6-phosphate dehydrogenase assay, NADP+ reduction at […] nm
Common to all, as to assay type: biochemical, Trachemys scripta elegans

Assay [1] deals with T1, FBPase (control liver).
T1 construct: gene FBP1; native, purified from liver of normoxic control turtles (phosphocellulose, CM cellulose); ~37 kDa on SDS-PAGE; band sent for mass spectrometry; tetramer in homology model
As to conditions: activation constant, activator, pH 7.2 imidazole, 5 mM MgSO4, 22 °C.

Assay [2] concerns the target T2, FBPase (anoxic liver).
T2 construct: gene FBP1; native, purified from liver of 20 h anoxic turtles
As to conditions: activation constant, activator, pH 7.2 imidazole, 5 mM MgSO4, 22 °C, enzyme from anoxic liver.

In assay [3] the test system is T2, FBPase (anoxic liver). To be noted: pH 7.2 imidazole, 5 mM MgSO4, 0.2 mM NADP+, 22 °C; paper states subsaturating FBP (0.24 µM); enzyme from anoxic liver.
The test system of assay [4] is T1, FBPase (control liver). To be noted: pH 7.2 imidazole, 5 mM MgSO4, 0.2 mM NADP+, 22 °C; paper states subsaturating FBP (0.24 µM).
In assay [5] the target is T1, FBPase (control liver). As to conditions: inhibitor, allosteric, pH 7.2 imidazole, 5 mM MgSO4, 0.2 mM NADP+, 22 °C, FBP 0.1 mM as optimal assay.
Assay [6] has as its target T2, FBPase (anoxic liver). As to conditions: inhibitor, allosteric; pH 7.2 imidazole, 5 mM MgSO4, 0.2 mM NADP+, 22 °C; FBP 0.1 mM as optimal assay; enzyme from anoxic liver.

Consider `Nc1ncnc2c1ncn2[C@@H]1O[C@H](COP(=O)(O)OP(=O)(O)OP(=O)(O)O)[C@@H](O)[C@H]1O` [ATP.Mg], for which the EC50 in assay [1] (ATP.Mg 1:1) came out at 144 ± 7 µM; in assay [2] (ATP.Mg 1:1) it was 25 ± 0.9 µM.

On to `O=P(O)(O)OC[C@H]1OC(O)(COP(=O)(O)O)[C@@H](O)[C@@H]1O` (stereo partly drawn) [FBP], for which the figures for the Km in assay [3] and in assay [4] were 59.8 ± 5.2 µM and 26.9 ± 3 µM, respectively.

As for `C[C@H](N)C(=O)O` [Alanine], the figures for the EC50 in assay [1] and in assay [2] were 2.85 ± 0.24 µM and 3.3 ± 0.1 µM, respectively.

As for `Nc1ncnc2c1ncn2[C@@H]1O[C@H](COP(=O)(O)O)[C@@H](O)[C@H]1O` [AMP], the 50% inhibitory concentration (IC50) was determined as 0.0061 ± 0.0001 mM in assay [5] and 3.6 ± 0.3 µM in assay [6].

Consider `Nc1ncnc2c1ncn2[C@@H]1O[C@H](COP(=O)(O)OP(=O)(O)O)[C@@H](O)[C@H]1O` [ADP], for which the concentration for half-maximal inhibition (IC50) in assay [5] (text b33 prints mM for this value, table µM) is 0.0118 ± 0.0003 mM; in assay [6] it was 8.3 ± 0.6 µM.

As for `C=C(OP(=O)(O)O)C(=O)O` [PEP], the EC50 is 0.33 ± 0.09 µM in assay [1] and 3.3 ± 0.2 µM in assay [2].

Broadly, the EC50 is the concentration that produces a half-maximal response. Low readings indicate a more potent agent, high ones a less potent agent. One may read the Km as the concentration of substrate that gives half-maximal velocity. Usually IC50 stands for the midpoint of a concentration-inhibition curve. Read a high IC50 as weaker potency in that assay.
